Test results as given in patent US12577206B2 (BRISTOL-MYERS SQUIBB COMPANY, priority 2020, dated 2026).

Tests used:
human FPR2 = biological target: T1, human FPR2 (Homo sapiens, UniProt P25090); assay: FPR2 cyclic adenosine monophosphate (cAMP) assay; type: cell-based; details: CHO cells overexpressing human FPR2; forskolin 5 μM; inhibition of cAMP production; HTRF; read-out: hFPR2 cAMP2 EC50
T1 sequence (P25090 1-351): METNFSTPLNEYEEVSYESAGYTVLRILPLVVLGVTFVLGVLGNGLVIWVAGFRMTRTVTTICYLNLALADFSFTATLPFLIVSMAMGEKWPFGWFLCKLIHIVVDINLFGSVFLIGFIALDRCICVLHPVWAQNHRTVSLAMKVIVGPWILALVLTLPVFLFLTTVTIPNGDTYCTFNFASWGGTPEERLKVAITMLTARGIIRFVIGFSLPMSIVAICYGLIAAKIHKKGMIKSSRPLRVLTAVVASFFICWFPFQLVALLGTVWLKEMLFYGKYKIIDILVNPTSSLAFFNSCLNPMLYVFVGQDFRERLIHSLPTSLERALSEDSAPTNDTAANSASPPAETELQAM
Method in brief: (§1)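 Inhibition of forskolin-stimulated cAMP (final forskolin 5 μM for FPR2, 10 μM for FPR1; IBMX 200 μM) was measured by HTRF in recombinant CHO cells after 30 min at room temperature.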

human FPR1 = biological target: T2, human FPR1 (Homo sapiens, UniProt P21462); assay: FPR1 cyclic adenosine monophosphate (cAMP) assay; type: cell-based; details: CHO cells overexpressing human FPR1; forskolin 10 μM; inhibition of cAMP production; HTRF; read-out: hFPR1 cAMP2 EC50
T2 sequence (P21462 1-350): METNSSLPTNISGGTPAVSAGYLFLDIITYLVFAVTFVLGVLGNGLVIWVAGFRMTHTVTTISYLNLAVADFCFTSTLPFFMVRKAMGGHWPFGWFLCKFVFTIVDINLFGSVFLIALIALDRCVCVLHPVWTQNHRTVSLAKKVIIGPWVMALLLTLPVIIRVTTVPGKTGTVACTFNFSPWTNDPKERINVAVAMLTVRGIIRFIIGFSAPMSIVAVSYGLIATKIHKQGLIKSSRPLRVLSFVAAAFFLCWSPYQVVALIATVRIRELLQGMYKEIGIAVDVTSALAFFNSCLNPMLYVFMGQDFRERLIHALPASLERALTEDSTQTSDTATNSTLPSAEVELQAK
Method in brief: as §1

Row | EC50 (human FPR2) | EC50 (human FPR1) | Structure (SMILES)
1 | 3 nM | 2400 nM | COc1cc(F)c(-c2c(NC(=O)c3ccc(OC(F)F)cc3)c(=O)n(-c3nc(N4CCN(C)CC4)ccc3C(F)(F)F)n2C)c(F)c1 [Example 135, N-[5-(2,6-difluoro-4-methoxyphenyl)-1-methyl-2-[6-(4-methylpiperazin-1-yl)-3-(trifluoromethyl)pyridin-2-yl]-3-oxo-2,3-dihydro-1H-pyrazol-4-yl]-4-(difluoromethoxy)benzamide]
2 | 3 nM | 6800 nM | COc1cc(F)c(-c2c(NC(=O)c3ccc(OC(F)F)cc3)c(=O)n(-c3nc(N(C)C)ccc3C(F)(F)F)n2C)c(F)c1 [Example 136, N-[5-(2,6-difluoro-4-methoxyphenyl)-2-[6-(dimethylamino)-3-(trifluoromethyl)pyridin-2-yl]-1-methyl-3-oxo-2,3-dihydro-1H-pyrazol-4-yl]-4-(difluoromethoxy)benzamide]
3 | 16 nM | 7100 nM | COc1cc(F)c(-c2c(NC(=O)c3ccc(OC(F)F)cc3)c(=O)n(-c3nc(N4C5CCC4CN(C)C5)ccc3C(F)(F)F)n2C)c(F)c1 [Example 137, N-[5-(2,6-difluoro-4-methoxyphenyl)-1-methyl-2-(6-{3-methyl-3,8-diazabicyclo[3.2.1]octan-8-yl}-3-(trifluoromethyl)pyridin-2-yl)-3-oxo-2,3-dihydro-1H-pyrazol-4-yl]-4-(difluoromethoxy)benzamide]
4 | 4 nM | 4800 nM | COc1cc(F)c(-c2c(NC(=O)c3ccc(OC(F)F)cc3)c(=O)n(-c3nc(N4CC(C)(O)C4)ccc3C(F)(F)F)n2C)c(F)c1 [Example 138, N-[5-(2,6-difluoro-4-methoxyphenyl)-2-[6-(3-hydroxy-3-methylazetidin-1-yl)-3-(trifluoromethyl)pyridin-2-yl]-1-methyl-3-oxo-2,3-dihydro-1H-pyrazol-4-yl]-4-(difluoromethoxy)benzamide]
5 | 3 nM | > 10000 nM | COc1cc(F)c(-c2c(NC(=O)c3ccc(OC(F)F)cc3)c(=O)n(-c3nc(N(CCO)CCO)ccc3C(F)(F)F)n2C)c(F)c1 [Example 139, N-(2-{6-[bis(2-hydroxyethyl)amino]-3-(trifluoromethyl)pyridin-2-yl}-5-(2,6-difluoro-4-methoxyphenyl)-1-methyl-3-oxo-2,3-dihydro-1H-pyrazol-4-yl)-4-(difluoromethoxy)benzamide]
6 | 4 nM | 1500 nM | COc1cc(F)c(-c2c(NC(=O)c3ccc(OC(F)F)cc3)c(=O)n(-c3nc(N4CC(OC(C)C)C4)ccc3C(F)(F)F)n2C)c(F)c1 [Example 140, N-[5-(2,6-difluoro-4-methoxyphenyl)-1-methyl-3-oxo-2-{6-[3-(propan-2-yloxy)azetidin-1-yl]-3-(trifluoromethyl)pyridin-2-yl}-2,3-dihydro-1H-pyrazol-4-yl]-4-(difluoromethoxy)benzamide]
7 | 7 nM | 3300 nM | COc1cc(F)c(-c2c(NC(=O)c3ccc(Cl)cc3)c(=O)n(-c3nc(N4CC(OC(C)C)C4)ccc3C(F)(F)F)n2C)c(F)c1 [Example 141, 4-chloro-N-[5-(2,6-difluoro-4-methoxyphenyl)-1-methyl-3-oxo-2-{6-[3-(propan-2-yloxy)azetidin-1-yl]-3-(trifluoromethyl)pyridin-2-yl}-2,3-dihydro-1H-pyrazol-4-yl]benzamide]
8 | 17 nM | 3100 nM | COc1cc(F)c(-c2c(NC(=O)c3ccc(OC(F)F)cc3)c(=O)n(-c3ncccc3N(C)C)n2C)c(F)c1 [Example 142, N-[5-(2,6-difluoro-4-methoxyphenyl)-2-[3-(dimethylamino)pyridin-2-yl]-1-methyl-3-oxo-2,3-dihydro-1H-pyrazol-4-yl]-4-(difluoromethoxy)benzamide]
9 | 3 nM | 2900 nM | COc1cc(F)c(-c2c(NC(=O)c3ccc(OC(F)F)cc3)c(=O)n(-c3nc(N4CC(F)(F)C4)ccc3Cl)n2C)c(F)c1 [Example 145, N-{2-[3-chloro-6-(3,3-difluoroazatidin-1-yl)pyridin-4-methoxyphenyl)-1-methyl-3-oxo-2,3-dihydro-1H-pyrazol-4-yl}-4-(difluoromethoxy)benzamide]
10 | 6 nM | > 10000 nM | COc1cc(F)c(-c2c(NC(=O)c3ccc(OC(F)F)cc3)c(=O)n(-c3nc(Cl)ccc3F)n2C)c(F)c1 [Example 146, N-[2-(6-chloro-3-fluoropyridin-2-yl)-5-(2,6-difluoro-4-methoxyphenyl)-1-methyl-3-oxo-2,3-dihydro-1H-pyrazol-4-yl]-4-(difluoromethoxy)benzamide]
11 | 3 nM | 730 nM | COc1cc(F)c(-c2c(NC(=O)c3ccc(OC(F)F)cc3)c(=O)n(-c3nc(N(C)C)ccc3Cl)n2C)c(F)c1 [Example 147, N-{2-[3-chloro-6-(dimethylamino)pyridin-2-yl]-5-(2,6-difluoro-4-methoxyphenyl)-1-methyl-3-oxo-2,3-dihydro-1H-pyrazol-4-yl}-4-(difluoromethoxy)benzamide]

Second part, the compound before the results:

Row | Structure (SMILES) | EC50 (human FPR2) | EC50 (human FPR1)
12 | CCOC(=O)c1cc(F)cc(-n2c(=O)c(NC(=O)c3ccc(OC(F)F)cc3)c(-c3c(F)cc(OC)cc3F)n2C)c1 [Example 133, ethyl 3-[3-(2,6-difluoro-4-methoxyphenyl)-4-[4-(difluoromethoxy)benzamido]-2-methyl-5-oxo-2,5-dihydro-1H-pyrazol-1-yl]-5-fluorobenzoate] | 3 nM | 550 nM
13 | COc1cc(F)c(-c2c(NC(=O)c3ccc(OC(F)F)cc3)c(=O)n(-c3cc(C)cc(Cl)c3)n2C)c(F)c1 [Example 134, N-[2-(3-chloro-5-methylphenyl)-5-(2,6-difluoro-4-methoxyphenyl)-1-methyl-3-oxo-2,3-dihydro-1H-pyrazol-4-yl]-4-(difluoromethoxy)benzamide] | 10 nM | > 10000 nM
14 | COc1cc(F)c(-c2c(NC(=O)c3ccc(OC(F)F)cc3)c(=O)n(-c3nc(N4CCN(C)CC4)ccc3Cl)n2C)c(F)c1 [Example 143, N-{2-[3-chloro-6-(4-methylpiperazin-1-yl)pyridin-2-yl]-5-(2,6-difluoro-4-methoxyphenyl)-1-methyl-3-oxo-2,3-dihydro-1H-pyrazol-4-yl}-4-(difluoromethoxy)benzamide] | 10 nM | 3700 nM
15 | COc1cc(F)c(-c2c(NC(=O)c3ccc(OC(F)F)cc3)c(=O)n(-c3nc(Cl)ccc3N3CC4(COC4)C3)n2C)c(F)c1 [Example 144, N-[2-(6-chloro-3-{2-oxa-6-azaspiro[3.3]heptan-6-yl}pyridin-2-yl)-5-(2,6-difluoro-4-methoxyphenyl)-1-methyl-3-oxo-2,3-dihydro-1H-pyrazol-4-yl]-4-(difluoromethoxy)benzamide] | 22 nM | > 10000 nM
16 | COc1cc(F)c(-c2c(NC(=O)c3ccc(OC(F)F)cc3)c(=O)n(-c3cc(F)cc(C(C)(C)O)c3)n2C)c(F)c1 [Example 148, N-[5-(2,6-difluoro-4-methoxyphenyl)-2-[3-fluoro-5-(2-hydroxypropan-2-yl)phenyl]-1-methyl-3-oxo-2,3-dihydro-1H-pyrazol-4-yl]-4-(difluoromethoxy)benzamide] | 4 nM | 1500 nM
17 | COc1cc(F)c(-c2c(NC(=O)c3ccc(OC(F)F)cc3)c(=O)n(-c3cc(Cl)cc(N4C[C@H]5C[C@@H]4CN5)c3)n2C)c(F)c1 [Example 149, N-(2-{3-chloro-5-[(1R,4R)-2,5-diazabicyclo[2.2.1]heptan-2-yl]phenyl}-5-(2,6-difluoro-4-methoxyphenyl)-1-methyl-3-oxo-2,3-dihydro-1H-pyrazol-4-yl)-4-(difluoromethoxy)benzamide] | 6 nM | 4700 nM
18 | COc1cc(F)c(-c2c(NC(=O)c3ccc(OC(F)F)cc3)c(=O)n(-c3cccc(N4CCCCC4=O)n3)n2C)c(F)c1 [Example 150, N-[5-(2,6-difluoro-4-methoxyphenyl)-1-methyl-3-oxo-2-[6-(2-oxopiperidin-1-yl)pyridin-2-yl]-2,3-dihydro-1H-pyrazol-4-yl]-4-(difluoromethoxy)benzamide] | 13 nM | 1500 nM
19 | COc1cc(F)c(-c2c(NC(=O)c3ccc(OC(F)(F)F)cc3)c(=O)n(-c3cc(C)ccn3)n2C)c(F)c1 [Example 151, N-[5-(2,6-difluoro-4-methoxyphenyl)-1-methyl-2-(4-methylpyridin-2-yl)-3-oxo-2,3-dihydro-1H-pyrazol-4-yl]-4-(trifluoromethoxy)benzamide] | 13 nM | 2700 nM
20 | COc1cc(F)c(-c2c(NC(=O)c3ccc(OC(F)F)cc3)c(=O)n(-c3cc(Cl)ccn3)n2C)c(F)c1 [Example 152, N-[2-(4-chloropyridin-2-yl)-5-(2,6-difluoro-4-methoxyphenyl)-1-methyl-3-oxo-2,3-dihydro-1H-pyrazol-4-yl]-4-(difluoromethoxy)benzamide] | 10 nM | > 10000 nM
